{"source": "patent US11707471B2", "about": "“ENPP1 inhibitors and their use for the treatment of cancer” (The Board of Trustees of the Leland Stanford Junior …, priority 2017, dated 2023)", "test_system": "4T1 tumor", "assay": "4T1 tumor model: ENPP1 inhibition with IR, cGAMP and anti-CTLA-4", "assay_type": "in vivo, mouse", "details": "20 Gy IR then intratumoral 10 μg cGAMP on day 2, 4, 7"}
{"smiles": "Nc1nc2c(ncn2[C@@H]2O[C@@H]3COP(=O)(O)O[C@H]4[C@@H](O)[C@H](n5cnc6c(N)ncnc65)O[C@@H]4COP(=O)(O)O[C@@H]2[C@@H]3O)c(=O)[nH]1", "note": "[cGAMP, cyclic guanosine monophosphate-adenosine monophosphate]", "values": [{"measurement": "effect over IR treatment", "result": "had no effect over IR treatment"}]}
